Measured values from patent US20150258105A1, “METHODS FOR ACUTE AND LONG-TERM TREATMENT OF ALCOHOL DEPENDENCE” (DemeRx, Inc., priority 2014, published 2015).
“Also recorded” adds a separate entry of the source.

Assays:
[1] = test system: healthy, drug-free male volunteers; assay: Safety and tolerability of noribogaine in healthy humans (adverse events, vital signs, ECG); type: in vivo, human
Procedure: (§1) Pulse oximetry and capnography data were collected continuously using a GE Carescape B650 monitoring system from 2 hours prior to dosing and until six hours after dosing, and thereafter at 12, 24, 48 and 72 hours post-dosing. […] Pupillary miosis was assessed by pupillometry.
(§2) Safety and tolerability of noribogaine were tested in the group of volunteers from Example 1. […] Safety evaluations included clinical monitoring, recording of adverse events (AEs), safety laboratory tests, vital signs, ECG telemetry from −2 h to 6 h after dosing, and 12-lead electrocardiograms (ECGs) up to 216 hours post-dosing.

[2] = test system: opioid-dependent participants; assay: QT interval prolongation (ΔQTc1) in opioid-dependent participants; type: in vivo, human; settings: 60, 120, 180 mg, first 24 hours post administration
Procedure: Patients' QT intervals were evaluated at regular time points throughout the study.

[3] = test system: opioid-dependent participants; assay: Opiate withdrawal scales (COWS, SOWS, OOWS) in opioid-dependent participants; type: in vivo, human; settings: first six hours following dosing
Procedure: Patients were evaluated based on the Clinical Opiate Withdrawal Scale (COWS), Subjective Opiate Withdrawal Scale (SOWS), and Objective Opiate Withdrawal Scale (OOWS) scoring systems over the period of time between administration of noribogaine (or placebo) until resumption of OST. These scales are outlined in Guidelines for the Psychosocially Assisted Pharmacological Treatment of Opioid Dependence, World Health Organization, Geneva (2009), Annex 10, which is incorporated herein by reference in its entirety. The scales measure the intensity of withdrawal symptoms, based on clinical, subjective, and objective indicia.

[4] = test system: patients dependent on alcohol; assay: Effect of noribogaine on withdrawal from alcohol in humans; type: in vivo, human; settings: single oral dose of 2 mg/kg, at least 2 hours after last alcohol use; self-evaluation and clinical observation
Procedure: Six patients are orally administered a single dose of 2 mg/kg noribogaine, and three patients receive placebo in a randomized, placebo-controlled, double-blind trial. All patients are dependent on alcohol. Treatment is administered at least 2 hours after last alcohol use.

[5] = test system: healthy, drug-free male volunteers; assay: Cold pressor test (analgesic effect) in healthy volunteers; type: in vivo, human
Procedure: Analgesic effect was assessed based on duration of hand immersion in ice water and on visual analog scale (VAS) pain scores upon hand removal from the water bath.
as §2

[6] = test system: healthy, drug-free male volunteers; assay: Pupillometry (pupillary miosis) in healthy volunteers; type: in vivo, human
Procedure: as §1
Summary statistics (means, standard deviations, and coefficients of variation) were determined for each dose group for safety laboratory test data, ECG and pharmacokinetic parameters, and pharmacodynamic variables. Categorical variables were analysed using counts and percentages. Dose-proportionality of AUC and Cmax was assessed using linear regression. The effect of dose on pharmacodynamic parameter values over time was assessed using two-factor analysis of variance (ANOVA). Pairwise comparisons (with Tukey-Kramer adjustment) between each dose group to the placebo were conducted at each time point using the least squares estimates obtained from the ANOVA, using SAS Proc Mixed (SAS ver 6.0).

[7] = test system: opioid-dependent participants; assay: Time to resumption of opioid substitution treatment (OST) in opioid-dependent participants; type: in vivo, human; settings: single 180 mg dose
[8] = Pharmacokinetics in opioid-dependent patients, Phase IB study (serum noribogaine); settings: 60, 120, 180 mg cohorts
[9] = Pharmacokinetics of noribogaine in healthy volunteers, ascending single oral dose (plasma, LCMSMS); settings: for CL/F / Tmax / AUC0-216 / AUC0-∞ / Cmax / t1/2: fasted healthy volunteers, mean (SD), n = 6; for mean AUC/24 hr / mean AUC/24: fasting conditions
[10] = test system: opioid-dependent participants; assay: Treatment emergent adverse events in opioid-dependent participants, single dose
[11] = after adjusting for baseline differences, p>0.9
[12] = 30 mg single oral noribogaine dose, plasma
[13] = 60 mg single oral noribogaine dose, plasma
[14] = across dose groups, healthy volunteers, plasma

CC[C@H]1CC2C[C@H]3c4[nH]c5ccc(O)cc5c4CCN(C2)C13 [noribogaine]
number of adverse events reported ([1]; 3 mg dose group, by two subjects): five
number of adverse events reported ([1]; 10 mg dose group, by a single subject): one
number of adverse events reported ([1]; 30 mg dose group, by a single subject): one
oximetry, capnography, respiratory rate ([1]; 3-60 mg, healthy volunteers): no changes in oximetry or capnography, or changes in respiratory rate
vital signs and safety laboratory tests ([1]; 3-60 mg, healthy volunteers): no changes in vital signs or safety laboratory tests of note
QTcF values >500 msec ([1]; 3-60 mg, healthy volunteers, ECGs up to 216 hours post-dosing): no QTcF values >500 msec at any time
Adverse events, Mild ([1]; Dose 3 mg, healthy volunteers): Dizziness; also recorded: Epistaxis; also recorded: Headache; also recorded: Back pain
Adverse events, Moderate ([1]; Dose 3 mg, healthy volunteers): Headache
Adverse events, Mild ([1]; Dose 10 mg, healthy volunteers): Headache
Adverse events, Mild ([1]; Dose 30 mg, healthy volunteers): Headache
intensity of adverse events ([1]; all dose groups, all resolved prior to study completion): mild-moderate intensity
single increase in QTcF ([1]; one subject dosed with 10 mg, at 24 hours post-dosing): > 60 ms
QT interval prolongation (ΔQTc1) [2]: dose-dependent increase in QT interval prolongation
withdrawal symptoms (COWS, OOWS, SOWS scores) ([3]; 120 mg, prior to resumption of OST): fewer withdrawal symptoms than the other patients
withdrawal symptoms versus placebo (COWS, OOWS, SOWS scores) ([3]; 60, 120, 180 mg): placebo generally experienced more withdrawal symptoms than patients who were administered noribogaine
symptoms of alcohol withdrawal compared to placebo [4]: fewer and/or less severe symptoms of alcohol withdrawal
analgesic effect in the cold pressor test ([5]; 3-60 mg single oral doses, 1° C. water): no analgesic effect
VAS pain scores, each dose group versus placebo (ANOVA) ([5]; after adjusting for baseline differences, p=0.17): no statistically significant differences
duration of hand immersion, each dose group versus placebo (ANOVA) [5, 11]: no statistically significant differences
pupillary constriction ([6]; 3-60 mg single oral doses, dark-adapted pupil diameter up to 216 hours): no evidence of pupillary constriction
pupil diameter, each dose group versus placebo (ANOVA) [6, 11]: no statistically significant differences
Time to resumption of OST compared with untreated patients and 60 mg [7]: still longer than untreated patients (7 hours, not shown) or those administered 60 mg noribogaine
dose dependence of maximum serum concentration (Cmax) [8]: increased in a dose-dependent manner
CL/F ([9]; 3 mg single oral noribogaine dose, plasma): 41.4 (7.0) L/h
CL/F ([9]; 10 mg single oral noribogaine dose, plasma): 42.3 (12.0) L/h
CL/F [9, 12]: 46.9 (16.4) L/h
Tmax ([9]; 30 mg single oral noribogaine dose, plasma, listed as noribogaine free base): 1.75 h
CL/F [9, 13]: 34.0 (11.4) L/h
dose dependence of Cmax and AUC ([9]; 3-60 mg single oral doses, healthy volunteers): increased linearly with dose
Volume of distribution ([9]; across dose groups (3-60 mg), healthy volunteers): 1417 to 3086 L
time of peak concentrations after oral noribogaine dosing [9, 14]: 2 to 3 h
absorption after oral dosing ([9]; healthy volunteers): rapidly absorbed
mean AUC/24 hr ([9]; single dose of 3 mg noribogaine free base, healthy volunteers): 3.1 ng/mL
mean AUC/24 hr ([9]; single dose of 10 mg noribogaine free base, healthy volunteers): 10.6 ng/mL
mean AUC/24 ([9]; single dose of 30 mg noribogaine free base, healthy volunteers): 29.2 ng/mL
mean AUC/24 ([9]; single dose of 60 mg noribogaine free base, healthy volunteers): 61 ng/mL
AE: Catheter Site Infection ([10]; 60 mg single dose, N = 6): 0
AE: Catheter Site Pain ([10]; 60 mg single dose, N = 6): 0
AE: Catheter Site Related Reaction ([10]; 60 mg single dose, N = 6): 0
AE: Cellulitis ([10]; 60 mg single dose, N = 6): 0
AE: Diarrhoea ([10]; 60 mg single dose, N = 6): 0
AE: Dry Mouth ([10]; 60 mg single dose, N = 6): 0
AE: Ear and Labyrinth Disorders ([10]; 60 mg single dose, N = 6): 0
AE: Epistaxis ([10]; 60 mg single dose, N = 6): 0
AE: Euphoric Mood ([10]; 60 mg single dose, N = 6): 0
AE: General Disorders and Administration Site Conditions ([10]; 60 mg single dose, N = 6): 0
AE: Hyperaesthesia ([10]; 60 mg single dose, N = 6): 0
AE: Infections and Infestations ([10]; 60 mg single dose, N = 6): 0
AE: Limb Discomfort ([10]; 60 mg single dose, N = 6): 0
AE: Malaise ([10]; 60 mg single dose, N = 6): 0
AE: Nausea ([10]; 60 mg single dose, N = 6): 0
AE: Oropharyngeal Pain ([10]; 60 mg single dose, N = 6): 0
AE: Pseudoparalysis ([10]; 60 mg single dose, N = 6): 0
AE: Respiratory, Thoracic and Mediastinal Disorders ([10]; 60 mg single dose, N = 6): 0
AE: Rhinorrhoea ([10]; 60 mg single dose, N = 6): 0
AE: Skin Discomfort ([10]; 60 mg single dose, N = 6): 0
AE: Skin Irritation ([10]; 60 mg single dose, N = 6): 0
AE: Skin and Subcutaneous Tissue Disorders ([10]; 60 mg single dose, N = 6): 0
AE: Somnoience ([10]; 60 mg single dose, N = 6): 0
AE: Tinnitus ([10]; 60 mg single dose, N = 6): 0
AE: Tremor ([10]; 60 mg single dose, N = 6): 0
AE: Urinary Tract Infection ([10]; 60 mg single dose, N = 6): 0
AE: Vomiting ([10]; 60 mg single dose, N = 6): 0
frequency of headaches ([10]; 60 mg treatment group): frequent
frequency of headaches ([10]; 120 mg dose group): attenuated
AE: Back Pain ([10]; 120 mg single dose, N = 6): 0
AE: Catheter Site Infection ([10]; 120 mg single dose, N = 6): 0
AE: Catheter Site Related Reaction ([10]; 120 mg single dose, N = 6): 0
AE: Depressed Mood ([10]; 120 mg single dose, N = 6): 0
AE: Dry Eye ([10]; 120 mg single dose, N = 6): 0
AE: Dyspepsia ([10]; 120 mg single dose, N = 6): 0
AE: Euphoric Mood ([10]; 120 mg single dose, N = 6): 0
AE: Limb Discomfort ([10]; 120 mg single dose, N = 6): 0
AE: Malaise ([10]; 120 mg single dose, N = 6): 0
AE: Musculoskeletal and Connective Tissue Disorders ([10]; 120 mg single dose, N = 6): 0
AE: Psychiatric Disorders ([10]; 120 mg single dose, N = 6): 0
AE: Somnoience ([10]; 120 mg single dose, N = 6): 0
AE: Urinary Tract Infection ([10]; 120 mg single dose, N = 6): 0
frequency of headaches ([10]; 180 mg dose group): attenuated
AE: Catheter Site Infection ([10]; 180 mg single dose, N = 6): 0
AE: Catheter Site Pain ([10]; 180 mg single dose, N = 6): 0
AE: Depressed Mood ([10]; 180 mg single dose, N = 6): 0
AE: Diarrhoea ([10]; 180 mg single dose, N = 6): 0
AE: Dry Eye ([10]; 180 mg single dose, N = 6): 0
AE: Dyspepsia ([10]; 180 mg single dose, N = 6): 0
AE: Ear and Labyrinth Disorders ([10]; 180 mg single dose, N = 6): 0
AE: Epistaxis ([10]; 180 mg single dose, N = 6): 0
AE: Euphoric Mood ([10]; 180 mg single dose, N = 6): 0
AE: Hyperaesthesia ([10]; 180 mg single dose, N = 6): 0
AE: Malaise ([10]; 180 mg single dose, N = 6): 0
AE: Oropharyngeal Pain ([10]; 180 mg single dose, N = 6): 0
AE: Pseudoparalysis ([10]; 180 mg single dose, N = 6): 0
AE: Psychiatric Disorders ([10]; 180 mg single dose, N = 6): 0
AE: Respiratory, Thoracic and Mediastinal Disorders ([10]; 180 mg single dose, N = 6): 0
AE: Rhinorrhoea ([10]; 180 mg single dose, N = 6): 0
AE: Skin Discomfort ([10]; 180 mg single dose, N = 6): 0
AE: Skin Irritation ([10]; 180 mg single dose, N = 6): 0
AE: Skin and Subcutaneous Tissue Disorders ([10]; 180 mg single dose, N = 6): 0
AE: Somnoience ([10]; 180 mg single dose, N = 6): 0
AE: Tinnitus ([10]; 180 mg single dose, N = 6): 0
AE: Tremor ([10]; 180 mg single dose, N = 6): 0
hallucinatory effects ([10]; 60, 120 or 180 mg single dose, opioid-dependent participants): no hallucinatory effects

CC[C@H]1C[C@@H]2C[C@H]3c4[nH]c5ccc(OC6OC(C(=O)O)C(O)C(O)C6O)cc5c4CCN(C2)[C@@H]13 (some centres unmarked) [Noribogaine glucuronide, noribogaine glucuronide]
AUC0-216 [9, 12]: 25.7 (9.1) ng · hr/ml
AUC0-∞ [9, 12]: 25.8 (9.3) ng · hr/ml
Cmax [9, 12]: 1.8 (0.6) ng/ml
Tmax [9, 12]: 3.0 (0.6) hr
t1/2 [9, 12]: 20.6 (4.9) hr
AUC0-216 [9, 13]: 65.0 (21.5) ng · hr/ml
AUC0-∞ [9, 13]: 67.1 (21.9) ng · hr/ml
Cmax [9, 13]: 4.1 (1.2) ng/ml
Tmax [9, 13]: 3.8 (1.2) hr
t1/2 [9, 13]: 23.1 (3.0) hr
mean half-life estimates [9, 14]: 21 to 23 h
time of peak concentrations after oral noribogaine dosing [9, 14]: 3 to 4 h
time by which detected in plasma of all subjects ([9]; after 30 mg or 60 mg oral noribogaine, healthy volunteers): ≤ 0.75 h
proportion of noribogaine glucuronide Cmax and AUC relative to noribogaine ([9]; both dose groups (30 mg and 60 mg)): 3-4%
